In PubChem BioAssay AID248 (DTP/NCI, 2004):
“And” between values parts separate entries of the source, which are not always exact repeats. Identical values can stand only once. Inconclusive results and toxic doses are left out. Cut-off read from the data, not from the text of the source: active = T/C of 150% or more; inactive = T/C below 125%.

Tested on: L1210 leukemia ip in BDF1 mice, survival T/C
Assay: NCI In Vivo Anticancer Drug Screen. Data for tumor model L1210 Leukemia (intraperitoneal) in B6D2F1 (BDF1) mice
Conditions: endpoint: mean survival time, higher = longer survival
Method in brief: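 Value reflects the ratio of survival in compound-treated mice to survival in vehicle-treated controls, with both groups carrying the same transplanted tumor.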

[1] = dose: 100.0 mg/kg/injection, schedule: Q04DX002 (ip), vehicle: saline with Tween-80
[2] = dose: 200.0 mg/kg/injection, schedule: Q04DX002 (ip), vehicle: saline with Tween-80
[3] = dose: 100.0 mg/kg/injection, schedule: Q01DX009 (ip), vehicle: saline
[4] = dose: 100.0 mg/kg/injection, schedule: Q04DX003 (ip), vehicle: Klucel (hydroxypropylcellulose) (HPC)
[5] = dose: 200.0 mg/kg/injection, schedule: Q01DX009 (ip), vehicle: saline
[6] = dose: 200.0 mg/kg/injection, schedule: Q04DX003 (ip), vehicle: Klucel (hydroxypropylcellulose) (HPC)
[7] = dose: 400.0 mg/kg/injection, schedule: Q04DX003 (ip), vehicle: Klucel (hydroxypropylcellulose) (HPC)
[8] = dose: 100.0 mg/kg/injection, schedule: Q04DX002 (ip), vehicle: Klucel (hydroxypropylcellulose) (HPC)
[9] = dose: 200.0 mg/kg/injection, schedule: Q04DX002 (ip), vehicle: Klucel (hydroxypropylcellulose) (HPC)
[10] = dose: 400.0 mg/kg/injection, schedule: Q04DX002 (ip), vehicle: Klucel (hydroxypropylcellulose) (HPC)
[11] = dose: 100.0 mg/kg/injection, schedule: Q04DX003 (ip), vehicle: saline with Tween-80
[12] = dose: 200.0 mg/kg/injection, schedule: Q04DX003 (ip), vehicle: saline with Tween-80
[13] = dose: 400.0 mg/kg/injection, schedule: Q04DX003 (ip), vehicle: saline with Tween-80
[14] = dose: 100.0 mg/kg/injection, schedule: Q01DX001 (ip), vehicle: saline with Tween-80
[15] = dose: 200.0 mg/kg/injection, schedule: Q01DX001 (ip), vehicle: saline with Tween-80
[16] = dose: 400.0 mg/kg/injection, schedule: Q01DX001 (ip), vehicle: saline with Tween-80
[17] = dose: 100.0 mg/kg/injection, schedule: Q01DX009 (ip), vehicle: saline with Tween-80
[18] = dose: 200.0 mg/kg/injection, schedule: Q01DX009 (ip), vehicle: saline with Tween-80
[19] = dose: 50.0 mg/kg/injection, schedule: Q01DX009 (ip), vehicle: saline
[20] = dose: 100.0 mg/kg/injection, schedule: Q04DX003 (ip), vehicle: saline
[21] = dose: 200.0 mg/kg/injection, schedule: Q04DX003 (ip), vehicle: saline
[22] = dose: 400.0 mg/kg/injection, schedule: Q04DX003 (ip), vehicle: saline
[23] = dose: 5.0 mg/kg/injection, schedule: Q01DX001 (ip), vehicle: saline
[24] = dose: 10.0 mg/kg/injection, schedule: Q01DX001 (ip), vehicle: saline
[25] = dose: 20.0 mg/kg/injection, schedule: Q01DX001 (ip), vehicle: saline
[26] = dose: 40.0 mg/kg/injection, schedule: Q01DX001 (ip), vehicle: saline
[27] = dose: 100.0 mg/kg/injection, schedule: Q01DX001 (ip), vehicle: saline

Measured: T/C

Cn1c(NCC[N+](C)(C)C)nc2ncncc21
inactive: dose: 15.0 mg/kg/injection, schedule: Q01DX001 (ip), vehicle: saline 90 % of control | dose: 30.0 mg/kg/injection, schedule: Q01DX001 (ip), vehicle: saline 93 % of control | dose: 60.0 mg/kg/injection, schedule: Q01DX001 (ip), vehicle: saline 95 % of control

O=[N+]([O-])c1ccccc1NC1OC(CO)C(O)C1O (stereo not given)
inactive: [1] 102 % of control | [2] 98 % of control | dose: 400.0 mg/kg/injection, schedule: Q04DX002 (ip), vehicle: saline with Tween-80 102 % of control

CCCCCCCC/C=C/CCCCCCCC(=O)NCC[N+]1(C)CCCCC1
inactive: dose: 75.0 mg/kg/injection, schedule: Q01DX001 (ip), vehicle: saline 95 % of control

COC(=O)C(C)(OC)OC
inactive: [3] 104 % of control | [4] 96 % of control | [5] 112 % of control | [6] 100 % of control | dose: 400.0 mg/kg/injection, schedule: Q01DX009 (ip), vehicle: saline 105 % of control | [7] 96 % of control

Cc1cc(Cl)c(C)cc1Cl
inactive: dose: 100.0 mg/kg/injection, schedule: Q01DX009 (ip), vehicle: saline sonified 107 % of control | dose: 100.0 mg/kg/injection, schedule: Q04DX003 (ip), vehicle: saline sonified 100 % of control | dose: 200.0 mg/kg/injection, schedule: Q01DX009 (ip), vehicle: saline sonified 110 % of control | dose: 200.0 mg/kg/injection, schedule: Q04DX003 (ip), vehicle: saline sonified 101 % of control | dose: 400.0 mg/kg/injection, schedule: Q01DX009 (ip), vehicle: saline sonified 102 % of control | dose: 400.0 mg/kg/injection, schedule: Q04DX003 (ip), vehicle: saline sonified 94 % of control

NC(=O)c1cccc([N+](=O)[O-])c1Br
inactive: [4] 103 % of control | [6] 98 % of control

O=C(Nc1ccccc1)N1CCC2N(C(=O)Nc3ccccc3)CCC3N(C(=O)Nc4ccccc4)CCC1N23 (stereo not given)
inactive: [4] 94 % of control | [6] 96 % of control | [7] 100 % of control

Cc1ccc(CNC(=O)Nc2ccccc2Cl)c(C)c1
inactive: [8] 105 % of control | [9] 97 % of control | [10] 97 % of control

COc1ccc(N2C=C(c3ccccc3)CC2=O)cc1
inactive: [8] 94 % of control | [9] 94 % of control | [10] 97 % of control

O=C(O)c1ccc2c3c(ccc([N+](=O)[O-])c13)C=C2
inactive: [11] 96 % of control | [12] 94 % of control | [13] 103 % of control

Nc1nc(Cc2cccc3ccccc23)nc(Cc2cccc3ccccc23)n1
inactive: [4] 87 % of control | [6] 92 % of control

COC(/C=N/O)c1ccccc1 (stereo not given)
inactive: dose: 50.0 mg/kg/injection, schedule: Q01DX009 (ip), vehicle: other 88 % of control | dose: 100.0 mg/kg/injection, schedule: Q01DX009 (ip), vehicle: other 88 % of control | dose: 200.0 mg/kg/injection, schedule: Q01DX009 (ip), vehicle: other 101 % of control

CCCCSc1nc2ccccc2c(=O)n1-c1ccccc1
inactive: [14] 100 % of control | [15] 103 % of control | [16] 97 % of control

C[As](C)Sc1ccnc(S[As](C)C)n1
inactive: [17] 102 % of control | [11] 96 % of control | [18] 107 % of control | [12] 96 % of control

O=[N+]1c2ccccc2N([O-])C2CCCCC21 (stereo not given)
inactive: [8] 93 % of control | [9] 93 % of control | [10] 104 % of control

COc1cccc(/C=N\N=C\c2cccc(OC)c2O)c1O
inactive: [14] 91 % of control | [15] 103 % of control and 105 % of control | [16] 94 % of control and 95 % of control

[Br][V]([Br])[Br]
inactive: dose: 12.0 mg/kg/injection, schedule: Q01DX009 (ip), vehicle: saline 97 % of control | dose: 25.0 mg/kg/injection, schedule: Q01DX009 (ip), vehicle: saline sonified 92 % of control | dose: 25.0 mg/kg/injection, schedule: Q01DX009 (ip), vehicle: saline 93 % of control | [19] 102 % of control | [20] 102 % of control

O=C(O)C1C2OC(C(Br)C2Br)C1C(=O)O (stereo not given)
inactive: [8] 106 % of control | [11] 93 % of control | [9] 98 % of control | [12] 95 % of control | [10] 95 % of control

COc1cc(OC)c(C(=O)c2ccccc2[N+](=O)[O-])c(OC)c1
inactive: [17] 91 % of control | [20] 99 % of control | [18] 92 % of control | [21] 99 % of control | dose: 400.0 mg/kg/injection, schedule: Q01DX009 (ip), vehicle: saline with Tween-80 96 % of control | [22] 100 % of control

COc1cc2ccc(C(C)N)cc2cc1OC (stereo not given)
inactive: [19] 100 % of control | [3] 105 % of control | [20] 110 % of control | [5] 103 % of control | [21] 117 % of control

Cc1nnc(NS(=O)(=O)c2ccc(N=Nc3c(N)nc(N)[nH]c3=O)cc2)s1
inactive: [23] 105 % of control | [24] 102 % of control | [25] 98 % of control | [26] 102 % of control

O=N[O-].O=N[O-].[Co].[NH-]CC[N-]CC[N-]CC[NH-]
inactive: dose: 50.0 mg/kg/injection, schedule: Q01DX001 (ip), vehicle: saline 104 % of control

O=C(NCO)NC1NC(=O)NC1=O (stereo not given)
inactive: [11] 101 % of control | [12] 101 % of control | [13] 108 % of control

N#CCC[P+](c1ccccc1)(c1ccccc1)c1ccccc1
inactive: [23] 102 % of control | [24] 102 % of control | [25] 102 % of control | [26] 102 % of control | dose: 80.0 mg/kg/injection, schedule: Q01DX001 (ip), vehicle: saline 100 % of control | [27] 109 % of control | dose: 200.0 mg/kg/injection, schedule: Q01DX001 (ip), vehicle: saline 108 % of control

CC(=O)CC(C)(C)c1ccccc1
inactive: dose: 100.0 mg/kg/injection, schedule: Q01DX001 (ip), vehicle: Klucel (hydroxypropylcellulose) (HPC) 100 % of control | [3] 103 % of control | [20] 103 % of control | dose: 200.0 mg/kg/injection, schedule: Q01DX001 (ip), vehicle: Klucel (hydroxypropylcellulose) (HPC) 95 % of control | [5] 101 % of control | [21] 100 % of control | dose: 400.0 mg/kg/injection, schedule: Q01DX001 (ip), vehicle: Klucel (hydroxypropylcellulose) (HPC) 94 % of control | [22] 111 % of control

CC(O)CNC(=S)c1ccccc1 (stereo not given)
inactive: [1] 101 % of control | [2] 101 % of control

CC(C(=O)O)N(CC(=O)O)CC(=O)O.[Co+2].[NH-]CC(=O)O (stereo not given)
inactive: dose: 6.25 mg/kg/injection, schedule: Q01DX009 (ip), vehicle: water 106 % of control and 89 % of control | dose: 12.5 mg/kg/injection, schedule: Q01DX009 (ip), vehicle: water 93 % of control and 106 % of control and 124 % of control | dose: 25.0 mg/kg/injection, schedule: Q01DX009 (ip), vehicle: water 102 % of control and 109 % of control | dose: 50.0 mg/kg/injection, schedule: Q01DX009 (ip), vehicle: water 109 % of control and 114 % of control | dose: 100.0 mg/kg/injection, schedule: Q04DX003 (ip), vehicle: water 107 % of control | dose: 200.0 mg/kg/injection, schedule: Q04DX003 (ip), vehicle: water 105 % of control

O=c1sc2ccccc2n1CCSCCn1c(=S)sc2ccccc21
inactive: [27] 90 % of control | dose: 400.0 mg/kg/injection, schedule: Q01DX001 (ip), vehicle: saline 93 % of control
